How the values were obtained:
[1] = Solubility of rasagiline salts in water measured using Crystal16 (Avantium Technologies)
physchem = conditions: water, Solubility of rasagiline salts in water

C#CCN[C@@H]1CCc2ccccc21 [L-mandelate, Rasagiline L-mandelate]
solubility ([1]; Solubility of rasagiline salts in water, 25 °C, H2O): 70 mg/mL
solubility ([1]; Solubility of rasagiline salts in water, 40 °C, H2O): 100 mg/mL

C#CCN[C@@H]1CCc2ccccc21 [L-tartrate, Rasagiline L-tartrate, reference compound]
solubility [1]: < 30 mg/mL

C#CCN[C@@H]1CCc2ccccc21 [(+)-camphor-10-sulfonate, Rasagiline (+)-camphor-10-sulfonate]
solubility (physchem): 113 mg/mL
Solubility of rasagiline salts in water: 175 mg/mL
